According to PubChem BioAssay (NCI):
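Test compounds were applied to cells in 96-well plates for 48 hours at 5 doses. GI50 is the concentration that inhibits growth by half. Definition used: TGI = concentration required for complete inhibition of growth.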

Legend:
Assay in all cases: NCI tumour cell line growth inhibition, 48 h
A498 renal = test system: A498 renal
COLO 205 colon = test system: COLO 205 colon
HCC-2998 colon = test system: HCC-2998 colon
LOX IMVI melanoma = test system: LOX IMVI melanoma
MALME-3M melanoma = test system: MALME-3M melanoma
NCI-H23 lung = test system: NCI-H23 lung
NCI-H460 lung = test system: NCI-H460 lung
OVCAR-3 ovarian = test system: OVCAR-3 ovarian
SNB-19 CNS = test system: SNB-19 CNS
ACHN renal = test system: ACHN renal

For O=C(O)/C=C/c1cnc[nH]1, the TGI (A498 renal) was greater than 500 µM, the TGI (COLO 205 colon) was greater than 500 µM and the TGI (HCC-2998 colon) was greater than 500 µM. The TGI (LOX IMVI melanoma) was greater than 500 µM, the TGI (MALME-3M melanoma) was greater than 500 µM and the TGI (NCI-H23 lung) was greater than 500 µM. For the same compound, the TGI (NCI-H460 lung) was greater than 500 µM, the TGI (OVCAR-3 ovarian) was greater than 500 µM and the TGI (SNB-19 CNS) was greater than 500 µM.
Compound O=C(O)c1cncc(C(=O)O)c1 has a TGI (A498 renal) greater than 100 µM, a TGI (ACHN renal) greater than 100 µM and a TGI (COLO 205 colon) greater than 100 µM. For the same compound, the TGI (LOX IMVI melanoma) was greater than 100 µM, the TGI (MALME-3M melanoma) was greater than 100 µM and the TGI (NCI-H23 lung) was greater than 100 µM. For the same compound, the TGI (NCI-H460 lung) was greater than 100 µM, the TGI (OVCAR-3 ovarian) was greater than 100 µM and the TGI (SNB-19 CNS) was greater than 100 µM.
Work on CC(=O)[O-].[Ni].c1ccc(/C(=N\Nc2ccccn2)c2ccccn2)cc1 yielded a TGI (A498 renal) of 36.3 µM, a TGI (ACHN renal) of 53 µM and a GI50 (COLO 205 colon) of 0.0121 µM. For the same compound, the TGI (HCC-2998 colon) was 19.8 µM, the TGI (LOX IMVI melanoma) was 22.3 µM and the TGI (MALME-3M melanoma) was 20.9 µM. It also gave a TGI (NCI-H23 lung) of 28.9 µM, a TGI (NCI-H460 lung) of 28 µM and a GI50 (OVCAR-3 ovarian) of 0.0385 µM. The TGI (OVCAR-3 ovarian) was 19.5 µM and the TGI (SNB-19 CNS) was 54 µM.
COc1ccc2c[n+](C)c3c4cc(OC)c(OC)cc4ccc3c2c1 gave a TGI (A498 renal) greater than 100 µM, a TGI (ACHN renal) greater than 92.5 µM and a TGI (COLO 205 colon) of 5.49 µM. For the same compound, the TGI (HCC-2998 colon) was 34.3 µM, the TGI (LOX IMVI melanoma) was 17.2 µM and the TGI (MALME-3M melanoma) was 42 µM. The TGI (NCI-H23 lung) was 13.6 µM, the TGI (NCI-H460 lung) was 19.3 µM and the TGI (OVCAR-3 ovarian) was 17.7 µM. The TGI (SNB-19 CNS) was 12 µM.
In the case of NC(CCCNc1cccc(O)c1)C(=O)O (centres undefined), the TGI (A498 renal) is reported as greater than 100 µM, the TGI (ACHN renal) is reported as greater than 100 µM and the TGI (COLO 205 colon) is reported as greater than 100 µM. For the same compound, the TGI (LOX IMVI melanoma) was greater than 100 µM, the TGI (MALME-3M melanoma) was greater than 100 µM and the TGI (NCI-H460 lung) was greater than 100 µM. The TGI (OVCAR-3 ovarian) was greater than 100 µM and the TGI (SNB-19 CNS) was greater than 100 µM.
In the case of CCSc1nc(N2CCCCC2)c2cn[nH]c2n1, the GI50 (A498 renal) is reported as 10.5 µM, the TGI (A498 renal) is reported as 41 µM and the GI50 (ACHN renal) is reported as 41.2 µM. It also gave a TGI (ACHN renal) greater than 100 µM, a GI50 (COLO 205 colon) of 21.3 µM and a TGI (COLO 205 colon) of 56.8 µM. It also gave a GI50 (HCC-2998 colon) of 42.6 µM, a TGI (HCC-2998 colon) greater than 100 µM and a GI50 (LOX IMVI melanoma) of 55.2 µM. For the same compound, the TGI (LOX IMVI melanoma) was greater than 100 µM, the GI50 (MALME-3M melanoma) was 37.1 µM and the TGI (MALME-3M melanoma) was 97.5 µM. For the same compound, the GI50 (NCI-H23 lung) was 93.2 µM, the TGI (NCI-H23 lung) was greater than 100 µM and the GI50 (NCI-H460 lung) was 20.4 µM. The TGI (NCI-H460 lung) was 76.5 µM, the GI50 (OVCAR-3 ovarian) was 27.9 µM and the TGI (OVCAR-3 ovarian) was greater than 100 µM. For the same compound, the GI50 (SNB-19 CNS) was 45.6 µM and the TGI (SNB-19 CNS) was greater than 100 µM.
With Cn1c(=O)c2c(ncn2CCSS(=O)(=O)O)n(C)c1=O the TGI (A498 renal) was greater than 100 µM, the TGI (ACHN renal) was greater than 100 µM and the TGI (COLO 205 colon) was greater than 100 µM. It also gave a TGI (MALME-3M melanoma) greater than 100 µM, a TGI (NCI-H23 lung) greater than 100 µM and a TGI (NCI-H460 lung) greater than 100 µM. For the same compound, the TGI (OVCAR-3 ovarian) was greater than 100 µM and the TGI (SNB-19 CNS) was greater than 100 µM.
For COc1cccc(C2C(C(=O)O)=C(CO)Oc3cc4c(cc32)OCO4)c1 (centres undefined), the TGI (A498 renal) was greater than 100 µM, the TGI (ACHN renal) was greater than 100 µM and the TGI (COLO 205 colon) was greater than 100 µM. The TGI (LOX IMVI melanoma) was greater than 100 µM, the TGI (MALME-3M melanoma) was greater than 100 µM and the TGI (NCI-H23 lung) was greater than 100 µM. It also gave a TGI (NCI-H460 lung) greater than 100 µM, a TGI (OVCAR-3 ovarian) greater than 100 µM and a TGI (SNB-19 CNS) greater than 100 µM.
For CC(=O)[O-].CC(=O)[O-].O=C(N/N=C/c1cc(Cl)cc(Cl)c1[OH2+])c1ccncc1.[Zn+2], the TGI (A498 renal) was greater than 100 µM, the TGI (ACHN renal) was greater than 100 µM and the TGI (COLO 205 colon) was greater than 100 µM. It also gave a TGI (HCC-2998 colon) greater than 100 µM, a TGI (LOX IMVI melanoma) greater than 100 µM and a TGI (MALME-3M melanoma) greater than 100 µM. The TGI (NCI-H23 lung) was greater than 100 µM, the TGI (NCI-H460 lung) was greater than 100 µM and the TGI (OVCAR-3 ovarian) was 94.8 µM. For the same compound, the TGI (SNB-19 CNS) was greater than 100 µM.
COc1ccc2c(c1)O[C@H]1c3ccc(O)cc3OC[C@@H]21 showed a TGI (ACHN renal) of 81.4 µM, a TGI (COLO 205 colon) of 57 µM and a TGI (HCC-2998 colon) of 53 µM. For the same compound, the TGI (LOX IMVI melanoma) was 32.2 µM, the TGI (MALME-3M melanoma) was greater than 100 µM and the TGI (NCI-H23 lung) was 86.5 µM. For the same compound, the TGI (NCI-H460 lung) was greater than 100 µM, the TGI (OVCAR-3 ovarian) was greater than 100 µM and the TGI (SNB-19 CNS) was greater than 100 µM.
CC(=O)NC(CCCCNC(=O)OC(C)(C)C)C(=O)O (centres undefined) was tested, and the TGI (A498 renal) was greater than 100 µM, the TGI (ACHN renal) was greater than 100 µM and the TGI (COLO 205 colon) was greater than 100 µM. The TGI (HCC-2998 colon) was greater than 100 µM, the TGI (LOX IMVI melanoma) was greater than 100 µM and the TGI (MALME-3M melanoma) was greater than 100 µM. The TGI (NCI-H460 lung) was greater than 100 µM, the TGI (OVCAR-3 ovarian) was greater than 100 µM and the TGI (SNB-19 CNS) was greater than 100 µM.
C=C(CN(C)C)C(=O)c1cc(C)ccc1C was tested, and the TGI (A498 renal) was 43.5 µM, the TGI (ACHN renal) was 11.8 µM and the TGI (COLO 205 colon) was 3.53 µM. It also gave a TGI (HCC-2998 colon) of 29.9 µM, a TGI (LOX IMVI melanoma) of 13.8 µM and a TGI (MALME-3M melanoma) of 7.77 µM. It also gave a TGI (NCI-H23 lung) of 33.4 µM, a TGI (NCI-H460 lung) of 44.6 µM and a TGI (OVCAR-3 ovarian) of 18.1 µM. The TGI (SNB-19 CNS) was 39.2 µM.
O=C(N1CCC(CN=c2cc3n(-c4ccc(Cl)cc4)c4ccccc4nc-3cc2Nc2ccc(Cl)cc2)CC1)N1CC1 was tested, and the GI50 (A498 renal) was 1.75 µM, the TGI (A498 renal) was 3.61 µM and the GI50 (ACHN renal) was 1.63 µM. For the same compound, the TGI (ACHN renal) was 3.21 µM, the GI50 (HCC-2998 colon) was 0.632 µM and the TGI (HCC-2998 colon) was 1.58 µM. For the same compound, the GI50 (NCI-H23 lung) was 1.65 µM, the TGI (NCI-H23 lung) was 3.23 µM and the GI50 (OVCAR-3 ovarian) was 1.1 µM. It also gave a TGI (OVCAR-3 ovarian) of 2.69 µM.
O=c1[nH]cc(N(CCCl)CCCl)c(=O)[nH]1 gave a TGI (A498 renal) of 191 µM, a TGI (ACHN renal) of 92.6 µM and a TGI (COLO 205 colon) of 157 µM. For the same compound, the TGI (HCC-2998 colon) was 136 µM, the TGI (LOX IMVI melanoma) was 165 µM and the TGI (MALME-3M melanoma) was 106 µM. For the same compound, the TGI (NCI-H23 lung) was 97.6 µM, the TGI (NCI-H460 lung) was 155 µM and the TGI (OVCAR-3 ovarian) was 223 µM. For the same compound, the TGI (SNB-19 CNS) was 400 µM.
For O=NNc1cnccn1, the TGI (A498 renal) was greater than 1250 µM, the TGI (ACHN renal) was greater than 1250 µM and the TGI (COLO 205 colon) was greater than 1250 µM. For the same compound, the TGI (HCC-2998 colon) was greater than 1250 µM, the TGI (LOX IMVI melanoma) was greater than 1250 µM and the TGI (MALME-3M melanoma) was greater than 1250 µM. For the same compound, the TGI (NCI-H23 lung) was greater than 1250 µM, the TGI (NCI-H460 lung) was greater than 1250 µM and the TGI (OVCAR-3 ovarian) was greater than 1250 µM. The TGI (SNB-19 CNS) was greater than 1250 µM.
Work on c1ccc(SC(Sc2ccccc2)c2ccc3c(c2)OCO3)cc1 yielded a TGI (A498 renal) greater than 100 µM, a TGI (ACHN renal) greater than 100 µM and a TGI (LOX IMVI melanoma) greater than 100 µM. For the same compound, the TGI (MALME-3M melanoma) was greater than 100 µM, the TGI (NCI-H23 lung) was greater than 100 µM and the TGI (NCI-H460 lung) was greater than 100 µM. The TGI (OVCAR-3 ovarian) was greater than 100 µM and the TGI (SNB-19 CNS) was greater than 100 µM.
With CCOC(=O)C1(C(=O)OCC)CSC1 the TGI (A498 renal) was greater than 100 µM, the TGI (ACHN renal) was greater than 100 µM and the TGI (COLO 205 colon) was greater than 100 µM. For the same compound, the TGI (HCC-2998 colon) was 0.853 µM, the TGI (LOX IMVI melanoma) was greater than 100 µM and the TGI (NCI-H23 lung) was greater than 100 µM. The TGI (NCI-H460 lung) was 1.74 µM, the TGI (OVCAR-3 ovarian) was greater than 100 µM and the TGI (SNB-19 CNS) was greater than 100 µM.
